Experimental data reported in ChEMBL document CHEMBL1151001, “Nonpeptide angiotensin II receptor antagonists: the discovery of DMP 581 and DMP 811” (Bioorg Med Chem Lett, 1994).

Key:
Rattus norvegicus [1] = test: Antihypertensive potency expressed as effective dose (iv) that lowers the mean arterial blood pressure by 30 mm Hg in renal hypertensive rats.; assay type: functional; conditions: Artery
[2] = Oral bioavailability; assay type: ADME, organism-based, Canis lupus familiaris; conditions: dog, in vivo
Rattus norvegicus [3] = species: Rattus norvegicus; test: Oral antihypertensive potency expressed as effective dose that lowers the mean arterial blood pressure by 30 mm Hg in renal hypertensive rats; assay type: functional
[4] = Oral bioavailability in dog (dosed as neat powder in hard gelatin capsule); assay type: ADME, organism-based, Canis lupus familiaris; conditions: in vivo

Row | SMILES | ED30 (Rattus norvegicus [3]) [mg/kg] | other results
1 | CCCc1nc(CC)c(C(=O)O)n1Cc1ccc(-c2ccccc2-c2nnn[nH]2)cc1 | 0.03 | ED30 (Rattus norvegicus [1]): 0.005 mg/kg; bioavailability [2]: 15%
2 | CCCc1nc(C(C)C)c(C(=O)O)n1Cc1ccc(-c2ccccc2-c2nn[nH]n2)cc1 | 0.11 | –
3 | CCCc1nc(CC)c(C(=O)OCc2oc(=O)oc2-c2ccccc2)n1Cc1ccc(-c2ccccc2-c2nn[nH]n2)cc1 | 0.3 | –
4 | CCCc1nc(CC)c(C(=O)OCc2oc(=O)oc2C(C)(C)C)n1Cc1ccc(-c2ccccc2-c2nn[nH]n2)cc1 | 0.1 | –
5 | CCCc1nc(CC)c(C(=O)OC(C)OC(=O)OC)n1Cc1ccc(-c2ccccc2-c2nn[nH]n2)cc1 (configuration not stated) | 0.02 | –
6 | CCCc1nc(CC(C)C)c(C(=O)O)n1Cc1ccc(-c2ccccc2-c2nn[nH]n2)cc1 | 0.87 | –
7 | CCCc1nc(CCC)n(Cc2ccc(-c3ccccc3-c3nn[nH]n3)cc2)c1C=O | 0.3 | –
8 | CCCc1nc(CC)c(C(=O)OCOC(=O)OC)n1Cc1ccc(-c2ccccc2-c2nn[nH]n2)cc1 | 0.03 | –
9 | CCCc1nc(C)c(C=O)n1Cc1ccc(-c2ccccc2-c2nn[nH]n2)cc1 | 0.1 | –
10 | CCCc1nc(C(C)(C)C)c(C(=O)O)n1Cc1ccc(-c2ccccc2-c2nn[nH]n2)cc1 | 0.35 | –
11 | CCCc1nc(CCC)n(Cc2ccc(-c3ccccc3-c3nn[nH]n3)cc2)c1C(=O)O | 0.63 | –
12 | CCCc1nc(C(C)(C)C)c(C=O)n1Cc1ccc(-c2ccccc2-c2nn[nH]n2)cc1 | 0.048 | –
13 | CCCc1nc(CC)c(C(=O)OCOC(=O)OC(C)(C)C)n1Cc1ccc(-c2ccccc2-c2nn[nH]n2)cc1 | 0.02 | –
14 | CCCc1nc(C(C)CC)c(C=O)n1Cc1ccc(-c2ccccc2-c2nn[nH]n2)cc1 (configuration not stated) | 0.33 | –
15 | CCCc1nc(CC)c(C(=O)OCOC(=O)C(C)(C)C)n1Cc1ccc(-c2ccccc2-c2nn[nH]n2)cc1 | 0.03 | –
16 | CCCc1nc(CC)c(C=O)n1Cc1ccc(-c2ccccc2-c2nnn[nH]2)cc1 | 0.027 | bioavailability [4]: 70%; ED30 (Rattus norvegicus [1]): 0.11 mg/kg; bioavailability [2]: ~100%
17 | CCCCc1nc(CCC)n(Cc2ccc(-c3ccccc3-c3nn[nH]n3)cc2)c1C=O | 1 | –
18 | CCCc1nc(CC)c(C(=O)OCOC(=O)C(C)C)n1Cc1ccc(-c2ccccc2-c2nn[nH]n2)cc1 | 0.03 | –
19 | CCCc1nc(CC)c(C(=O)OCc2oc(=O)oc2C)n1Cc1ccc(-c2ccccc2-c2nn[nH]n2)cc1 | 0.1 | –
20 | CCCc1nc(CC)c(C(=O)OC(C)OC(=O)OC(C)(C)C)n1Cc1ccc(-c2ccccc2-c2nn[nH]n2)cc1 (configuration not stated) | 0.3 | –
21 | CCCc1nc(CC(C)C)c(C=O)n1Cc1ccc(-c2ccccc2-c2nn[nH]n2)cc1 | 0.29 | –
22 | CCCc1nc(C(C)CC)c(C(=O)O)n1Cc1ccc(-c2ccccc2-c2nn[nH]n2)cc1 (configuration not stated) | 0.46 | –
23 | CCCCc1nc(CCC)n(Cc2ccc(-c3ccccc3-c3nn[nH]n3)cc2)c1C(=O)O | 1.3 | –
24 | CCCc1nc(C)c(C(=O)O)n1Cc1ccc(-c2ccccc2-c2nn[nH]n2)cc1 | 0.19 | –
25 | CCCc1nc(C(C)C)c(C=O)n1Cc1ccc(-c2ccccc2-c2nn[nH]n2)cc1 | 0.13 | –
26 | CCCc1nc(C(F)(F)C(F)(F)F)c(C(=O)O)n1Cc1ccc(-c2ccccc2-c2nnn[nH]2)cc1 | 0.21 | bioavailability [4]: 12%; ED30 (Rattus norvegicus [1]): 0.042 mg/kg
27 | CCCCc1nc(Cl)c(C(=O)O)n1Cc1ccc(-c2ccccc2-c2nn[nH]n2)cc1 [CARBOXYLIC ACID METABOLITE] | 0.66 | ED30 (Rattus norvegicus [1]): 0.038 mg/kg
28 | CCCCc1nc(Cl)c(CO)n1Cc1ccc(-c2ccccc2-c2nnn[nH]2)cc1 [LOSARTAN] | 0.59 | ED30 (Rattus norvegicus [1]): 0.8 mg/kg
